Some results are limits rather than exact numbers.

Data set [1] in a line: Direct dissolution of peptides in D5W without DMSO. In kind it is physicochemical. The following applies: <1 mg peptide.
Data set [2] in a line: Peptide diluent matrix (precipitation of DMSO dissolved peptides in various liquids). The following applies: for Precipitation in diluent: 10% Sucrose: 10-20 μL DMSO dissolved peptide added to 10% Sucrose; for Precipitation in diluent: D5W (5% Dextrose USP Grade Inj): 10-20 μL DMSO dissolved peptide added to D5W; for Precipitation in diluent: Liposome: 10-20 μL DMSO dissolved peptide added to Liposome; for Precipitation in diluent: PBS pH 7.4: 10-20 μL DMSO dissolved peptide added to PBS pH 7.4; for Precipitation in diluent: Water: 10-20 μL DMSO dissolved peptide added to Water. Set-up: key to Precipitation in diluent: Liposome / Precipitation in diluent: PBS pH 7.4 / Precipitation in diluent: Water / Precipitation in diluent: 10% Sucrose / Precipitation in diluent: D5W (5% Dextrose USP Grade Inj): P = precipitation; NP = no precipitation. Type of data set: physicochemical. The procedure: Additional peptide solubility conditions were tested. Peptides CS6709, CS6712, CS6720, CS6726, and CS6783 were weighed at approximately 10 mg each. The peptides were then dissolved in approximately 200 μL USP grade DMSO to obtain a 50 mg/mL concentration for each peptide. […] The sample appeared to be cloudy. Additional 50 μL increments of DMSO were added to Peptide CS6709 up to 400 μL; for a total of 600 μL of DMSO. […] To dilute the peptides to 400 μg, a PBS pH 7.4 solution without potassium was prepared. All 5 DMSO peptide samples (50 mg/mL) were placed in a single vial for dilution to 400 μg/mL. Each DMSO peptide was added to the vial at 40 μL, except for CS6709 which was at a concentration of 16.67 mg/mL. The volume of CS6709 added to the single vial was 120 μL. The samples were diluted to 400 μg by adding 4.72 mL PBS pH 7.4. Upon addition of the PBS pH 7.4, it was observed that one or more of the peptides had precipitated out. To determine which of the peptides precipitated, Applicants followed the matrix in Table 5 below using very small amounts (10-20 μL) of the DMSO dissolved peptides and adding these peptides to the various liquids.

Data set [3] in a line: Solubility of peptides in DMSO/D5W/5 mM succinate formulation. Conditions: pH 6.
Data set [4] can be described thus: Short-term room temperature stability of Pool 3 mixed with Hiltonol (RP-HPLC). Type of data set: physicochemical. The procedure: A peptide pool (Pool 3) consisting of the five peptides shown in Table 6 below was prepared by dissolution in DMSO and dilution with D5W/Succinate (2 mM) to 2 mg/ml and pooling to a final peptide concentration of 400 μg per ml and a final DMSO concentration of 4%. After preparation, peptides were filtered with a 25 mm Pall PES filter (Cat#4612) and dispensed into Nunc Cryo vials (#375418) in one ml aliquots.
Three samples were prepared by mixing 0.75 ml of Pool3 with 0.25 ml Hiltonol® as planned for the dosage form preparation. The samples were then left at room temperature for 0, 4 and 6 hours and analyzed by RP-HPLC (Table 7). […] As slight increase in a second peak associated with peptide CS6919 was noted, increasing from 14% to 17% and 18% at 4 and 6 hours, respectively. […] Recovery of all peptides was above 90%, indicating no breakdown and loss of any peptides in the final dosage form after 6 hour room temperature incubation.

Data set [5] can be described thus: pH of peptide solutions in DMSO/D5W, with succinate, and with Hiltonol. Type of data set: physicochemical.
Data set [6] can be described thus: Solubility of peptides in DMSO (50 mg/ml). Type of data set: physicochemical. The method, then:
The only problematic peptides are very hydrophobic peptides. Additional peptide solubility conditions were tested. Peptides CS6709, CS6712, CS6720, CS6726, and CS6783 were weighed at approximately 10 mg each. The peptides were then dissolved in approximately 200 μL USP grade DMSO to obtain a 50 mg/mL concentration for each peptide. […] The sample appeared to be cloudy. Additional 50 μL increments of DMSO were added to Peptide CS6709 up to 400 μL; for a total of 600 μL of DMSO.

Regarding “H-LKDSNSWPPSNKRGFDTEDAHKSNATPVP-OH [CS6712]”, the “Dissolution directly in D5W without using DMSO” value in data set [1] was “could be dissolved directly in D5W”. Besides, in data set [2], the “Precipitation in diluent: 10% Sucrose” value is given as “NP”, the “Precipitation in diluent: D5W (5% Dextrose USP Grade Inj)” value is “NP”, the “Precipitation in diluent: Liposome” value is “NP” and the “Precipitation in diluent: PBS pH 7.4” value is “NP”. In addition, the “Precipitation in diluent: Water” value in data set [2] was “NP”.

H-ASRALEEKKGNYVVTDHGSCVRA-OH returned a solubility in data set [3] above 2000 µg/mL.

H-VTLNDMKARQKALVRERERQLA-OH: the solubility in data set [3] is above 2000 µg/mL.

In data set [3], H-LVDQWRWGVFSGHTPPSRYNFDWWY-OH came in with a solubility below 2000 µg/mL.

H-LCPASRALEEKKGNYVVTDHGS-OH showed a solubility in data set [3] above 2000 µg/mL.

Take H-LDVLQRPLSPGNSEFLTATANYSK-OH: the solubility in data set [3] was below 2000 µg/mL.

Consider “H-VAGLAASGLHGSAWLVPGEQPVSGPHHGKQ-OH [CS6931]”, for which, in data set [4] (Pool 3 + Hiltonol, 4 Hours RT), the “% Impurity” value is recorded as 3.02%, the “% Purity” value was 96.98%, the “Main Peak” value was found to be 8523.53 and the “Total Impurities” value worked out at 265.54. In data set [4] (Pool 3 + Hiltonol, 4 Hours RT), the “Total Peak” value came to 8789.07. Also, in data set [4] (Pool 3 + Hiltonol, 6 Hours RT), the “% Impurity” value is on record as 3.21%, the “% Purity” value is reported as 96.79%, the “Main Peak” value is given as 9387.81 and the “Total Impurities” value came to 311.37. The “Total Peak” value in data set [4] (Pool 3 + Hiltonol, 6 Hours RT) is on record as 9699.18. Further, in data set [4] (T0 Pool 3 + Hiltonol, RP-HPLC), the “% Impurity” value is 2.16%, the “% Purity” value amounted to 97.84%, the “Main Peak” value is listed as 9014.82 and the “Total Impurities” value is listed as 198.6. Moreover, in data set [4] (T0 Pool 3 + Hiltonol, RP-HPLC), the “Total Peak” value was 9213.42. Besides, in data set [5], the “pH of peptides in DMSO/D5W” value is given as 3.80; the “pH of peptides in DMSO/D5W/5mM S. Succinate spike” value turned out to be 6.42; the “pH of peptides in DMSO/D5W/5nnM Succinate and Hiltonol” value is listed as 6.66.

In data set [3], H-ETYSRSFYPEHSIKEWLIGMELVFV-OH registered a solubility below 2000 µg/mL.

Consider H-LAALCPASRALEEKKGNYVVTDH-OH, for which, in data set [3], the solubility was above 2000 µg/mL.

Take H-GALGAVGATKVPRNQDWLGVSRQLRTKA-OH: the solubility in data set [3] is above 2000 µg/mL.

The substance H-ESKLFGDPDEFSLAHLLEPFRQYYL-OH gave a solubility in data set [3] below 2000 µg/mL.

“H-LTDLPGRIRVAPQQNDLDSPQQISISNAE-OH [CS6709]”: the “Concentration at which peptide went into solution (clear) in DMSO” value in data set [6] came out at 16670 µg/mL. Also, in data set [6] (10.02 mg in 200 μL DMSO), the “Dissolution in DMSO at 50 mg/mL” value is on record as “did not fully dissolve”. Besides, the “Dissolution directly in D5W without using DMSO” value in data set [1] is recorded as “could be dissolved directly in D5W”. Moreover, in data set [2], the “Precipitation in diluent: 10% Sucrose” value was “NP”, the “Precipitation in diluent: D5W (5% Dextrose USP Grade Inj)” value is listed as “NP”, the “Precipitation in diluent: Liposome” value is given as “NP” and the “Precipitation in diluent: PBS pH 7.4” value is listed as “NP”. Besides, the “Precipitation in diluent: Water” value in data set [2] was “NP”.

For H-DPNKYPVPENWLYKEAHQLFLE-OH, in data set [3], the solubility was above 2000 µg/mL.

As to “H-AHRQGEKQHLLPVFSRLALRLPWRHSVQL-OH [CS6941]”, in data set [4] (Pool 3 + Hiltonol, 4 Hours RT), the “% Impurity” value is recorded as 0%, the “% Purity” value worked out at 100%, the “Main Peak” value stood at 6676.54 and the “Total Impurities” value is reported as 0. The “Total Peak” value in data set [4] (Pool 3 + Hiltonol, 4 Hours RT) was found to be 6676.54. Besides, in data set [4] (Pool 3 + Hiltonol, 6 Hours RT), the “% Impurity” value stood at 0%, the “% Purity” value is 100%, the “Main Peak” value came out at 7158.29 and the “Total Impurities” value was 0. Moreover, the “Total Peak” value in data set [4] (Pool 3 + Hiltonol, 6 Hours RT) stood at 7158.29. For the same substance, in data set [4] (T0 Pool 3 + Hiltonol, RP-HPLC), the “% Impurity” value turned out to be 0%, the “% Purity” value was 100%, the “Main Peak” value worked out at 7140.91 and the “Total Impurities” value was 0. Moreover, the “Total Peak” value in data set [4] (T0 Pool 3 + Hiltonol, RP-HPLC) worked out at 7140.91. Besides, in data set [5], the “pH of peptides in DMSO/D5W” value turned out to be 3.92; the “pH of peptides in DMSO/D5W/5mM S. Succinate spike” value is recorded as 6.49; the “pH of peptides in DMSO/D5W/5nnM Succinate and Hiltonol” value worked out at 6.78.

Values taken from patent publication US20190060428A1, “FORMULATIONS FOR NEOPLASIA VACCINES AND METHODS OF PREPARING THEREOF” (The Broad Institue Inc., priority 2015, published 2019).
